Literature values as cited in patent US8048407B2, “In situ gelling self-reactive materials for embolization” (priority 2003, dated 2011).

Details: literature studies

In the case of `C=CC(=O)NCNC(=O)C=C` [NMBA, N,N-methylenebisacrylamide], the cross-link efficiency is given as 0.0066.
